Results published in US9381208B2, “Structure and use of 5′ phosphate oligonucleotides” (Rheinische Friedrich-Wilhelms-Universität, priority 2006, dated 2016).
Oligonucleotides are written 5' to 3', each unit as a sugar letter and its base; * is a phosphorothioate linkage, no mark a phosphodiester; rarer units and linkages stand in square brackets, end groups in braces. Plain capitals give the bases only. {ppp} = triphosphate group; {Biotin} = biotin label U; r = 2'-OH (RNA)

T1: RIG-I (Homo sapiens, UniProt O95786)
T1 sequence (O95786 1-925): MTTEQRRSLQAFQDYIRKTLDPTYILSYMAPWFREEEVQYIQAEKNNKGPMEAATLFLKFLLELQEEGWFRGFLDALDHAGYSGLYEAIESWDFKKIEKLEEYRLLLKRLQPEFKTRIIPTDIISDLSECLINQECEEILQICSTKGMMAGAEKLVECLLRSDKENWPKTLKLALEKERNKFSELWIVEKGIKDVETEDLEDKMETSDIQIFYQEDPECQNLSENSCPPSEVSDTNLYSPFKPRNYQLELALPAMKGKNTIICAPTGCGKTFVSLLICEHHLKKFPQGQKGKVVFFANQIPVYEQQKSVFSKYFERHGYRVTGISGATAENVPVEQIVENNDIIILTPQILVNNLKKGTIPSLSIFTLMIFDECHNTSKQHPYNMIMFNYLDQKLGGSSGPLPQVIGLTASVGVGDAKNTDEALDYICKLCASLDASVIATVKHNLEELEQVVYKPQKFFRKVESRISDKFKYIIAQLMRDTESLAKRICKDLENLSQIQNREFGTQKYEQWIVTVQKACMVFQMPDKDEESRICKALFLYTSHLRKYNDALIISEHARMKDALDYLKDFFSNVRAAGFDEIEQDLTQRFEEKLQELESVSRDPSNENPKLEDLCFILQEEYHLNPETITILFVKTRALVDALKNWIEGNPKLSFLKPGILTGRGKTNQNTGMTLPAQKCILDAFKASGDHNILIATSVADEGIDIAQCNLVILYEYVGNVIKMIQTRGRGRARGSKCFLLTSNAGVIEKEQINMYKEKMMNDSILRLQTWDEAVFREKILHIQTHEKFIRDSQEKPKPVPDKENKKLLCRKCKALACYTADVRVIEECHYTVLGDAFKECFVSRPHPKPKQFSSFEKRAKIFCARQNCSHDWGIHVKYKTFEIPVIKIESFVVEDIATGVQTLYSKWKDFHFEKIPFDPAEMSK

B1: IFN-β: Recombinant murine IFNβ (protein, UniProt P01575 22-182, looked up)
Interferon beta: INYKQLQLQERTNIRKCQELLEQLNGKINLTYRADFKIPMEMTEKMQKSYTAFAIQEMLQNVFLVFRNNFSSTGWNETIVVRLLDELHQQTVFLKTVLEEKQEERLTWEMSSTALHLKSYYWRVQRYLKLMKYNSYAWMVVRAEIFRNFLIIRRLTRNFQN

Legend:
[1] = tested on: human primary monocytes; assay: IFN-α production in human primary monocytes transfected with RNA (ELISA); type: cell-based; details: for IFN-α production in monocytes: 200 ng RNA transfected, 24 hours, ELISA
[2] = tested on: PDC; assay: IFN-α production in human PDC (ELISA); type: cell-based; details: 24 hours
Method: Human PBMC were prepared from whole blood donated by young healthy donors by Ficoll-Hypaque density gradient centrifugation (Biochrom, Berlin, Germany). PDC were isolated by MACS using the blood dendritic cell Ag (BCDA)-4 dendritic cell isolation kit from Miltenyi Biotec (Bergisch-Gladbach, Germany). Briefly, PDC were labelled with anti-BDCA-4 Ab coupled to colloidal paramagnetic microbeads and passed through a magnetic separation column twice (LS column, then MS column; Miltenyi Biotec). The purity of isolated PDC (lineage-negative, MHC-II-positive and CD123-positive cells) was above 95%. Before isolation of monocytes, PDC were depleted by MACS (LD column; Miltenyi Biotec) and then monocytes were isolated using the monocyte isolation kit II (Miltenyi Biotec). […] PDC cultures were additionally supplemented with 10 ng/ml IL-3 (R&D Systems). […] Vero (African green monkey kidney) and HEK 293T (human embryonic kidney) cells were maintained in Dulbecco's modified Eagle's medium supplemented with antibiotics and 5% or 10% foetal calf serum, respectively. BSR cells were propagated in Glasgow minimal essential medium supplemented with 10% newborn calf serum, phosphate broth, amino acids and antibiotics.
Human IFN-α was assessed in cell culture supernatants using the IFN-α module set (Bender MedSystems, Graz, Austria). The murine IP-10 ELISA was from Biosource (Solingen, Germany), the murine IFN-[…] ELISA was from PBL Biomedical Laboratories (Piscataway, USA). All ELISA procedures were performed, according to manufacturers' recommendations.

[3] = tested on: PBMC; assay: IFN-α induction in the presence of chloroquine; type: cell-based, human
[4] = target: T1, RIG-I; assay: pIFN-beta-Luc reporter assay in HEK 293 cells transfected with RIG-I; type: cell-based; design: Only HEK 293 cells expressing full length RIG-I responded to 5′triphosphate RNA; FLAG; expressed in transfected cells; host or cells: HEK 293; details: HEK 293 cells expressing full length RIG-I, 200 ng, 24 hours
[5] = tested on: RIG-I; assay: Ligand binding studies: pull-down of RIG-I by biotinylated RNA; details: CARD2 and RIG-I Δ Helicase_C
Method: (§1) Cell lysates were prepared according to Meister et al. (G. Meister et al., Mol Cell 15, 185 (Jul. 23, 2004)) with minor modifications. HEK 293 cells were transfected using high molecular weight (25 kDa) polyethylenimine (PEI; Sigma, 40.872-7). At a confluency of 80-90%, cells were transfected with a PEI:DNA ratio of 1.5:1. 24-36 hours after transfection cells were harvested and the cell pellet was resuspended in five pellet volumes of 10 mM KCl, 1.5 mM MgCl2, 0.5 mM dithiothreitol, 10 mM HEPES-NaOH (pH 7.9), 0.5 mM PMSF and incubated for ten minutes on ice. Subsequently cells were washed and the cell pellet was resuspended in two pellet volumes of the buffer described above and homogenized by douncing. The cell nuclei were removed from the cell lysate by centrifugation at 2.000 g for ten minutes. The supernatant was transferred into microcentrifuge tubes and cleared further by centrifugation at 2.000 g for ten minutes and further centrifugation for 30 minutes at 20.000 g to obtain the cytoplasmic extract. The concentration of KCl of the extract was subsequently raised to 100 mM by addition of 2 M KCl and glycerol was added to a percentage of 10%. For purification of FLAG-tagged RIG-IC complexes, cytoplasmic extracts were incubated in FLAG M2 agarose beads (Sigma). FLAG M2 agarose beads were washed once with 0.1 M glycine (pH 3.5) and equilibrated by washing with 1 M Tris-HCl (pH 8.0). […]

[6] = target: T1, RIG-I; assay: as above; design: HEK 293 cells were transiently transfected with full length RIG-I, RIG-I CARD2 or RIG-I ΔHELIc; expressed in transfected cells; host or cells: HEK 293 (whole cell lysate); details: whole cell lysate of HEK 293 cells overexpressing full length RIG-I
Method: as §1

[7] = tested on: Caspase-1; assay: Caspase-1 activation in B16 cells (western blot); type: cell-based, murine; details: 24 hours
Method: (e) B16 cells were incubated with control siRNA, 3p-2.2 and poly(I:C) for 24 hours and assessed for caspase-1 activity via immunoblotting. α-Tublin served as loading control. One representative experiment of three is shown.
(§2) For Western blotting, samples were separated by SDS-PAGE and transferred to a nitrocellulose membrane (Amersham-Biosciences, UK) by semi-dry electroblotting. As primary antibody polyclonal rat anti-RIG-I (kind gift of Dr. Kremer), polyclonal rabbit anti-Bcl-2 (Santa Cruz, sc-7382) and rabbit anti-caspase-1 (Santa Cruz, sc-7148) antibody were used. As secondary antibody, peroxidase-conjugated anti-mouse or anti-rabbit antibody (Amersham-Biosciences) were used. Bound antibodies were visualized by enhanced chemiluminescence system (ECL) according to the manufacturer's protocol (Amersham-Biosciences).

[8] = tested on: RIG-I; assay: Expression of endogenous RIG-I in B16 cells (western blot); type: cell-based, murine; details: 6 hours
Method: (b) To determine the endogenous expression of RIG-I, B16 cells were stimulated with 3p-2.2 (1.2 μg/well) and murine IFN-β (1000 U/ml). After 6 hours cells were lysed and analyzed for endogenous expression of RIG-I by Western Blot. HEK293 cells overexpressing full-length RIG-I served as positive control. One representative experiment of two is shown.
as §2

| Molecule | IFN-α production in monocytes [1] | IFN-α production in PDC [2] | IFN-β promoter reporter expression [4] | further results |
| --- | --- | --- | --- | --- |
| 5′-ggGGGACGATCGTCgggggG-3′ [CpG-A ODN 2216, reference compound] | failed to produce IFN-α | induce IFN-α in PDC | – | IFN-α production with chloroquine ([1]; isolated monocytes): inactive; effect of increasing concentrations of chloroquine on IFN-α induction [3]: inhibited IFN-α induction |
| 5′-pppGGGGAUGAACUUCAGGGUCAGCUU-3′ ({ppp}-rGrGrGrGrArUrGrArArCrUrUrCrArGrGrGrUrCrArGrCrUrU) [tri-GFPa] | comparable levels of IFN-α | – | strongly activated reporter expression | – |
| tri-G-AC-U-Bio: biotinylated 5′ triphosphate oligonucleotide, SEQ ID NO: 349, 3′ terminal biotinylated U (GGGAGACAGGCACCACACACACACACACUUU; RNA, 5' {ppp}, 3' {Biotin}, backbone not given here; biotin attached to the 3'-terminal U) | – | – | – | pull-down of truncated versions of RIG-I [5]: not very effective at pulling down; pull-down of full length RIG-I [6]: able to immunoprecipitate full length RIG-I |
| 5′-OHAGCUUAACCUGUCCUUCAA-3′ [synthetic isRNA9.2s, reference compound] | – | produced IFN-α | did not respond | – |
| Polyinosinic:polycytidylic acid [poly(I:C)] | – | – | did not respond | cleavage of procaspase-1 [7]: increased cleavage of procaspase-1 to active subunit p10 |
| 5′-pppGGGGCUGACCCUGAAGUUCAUCUU-3′ [tri-GFPs] | comparable levels of IFN-α | – | strongly activated reporter expression | – |
| 5′-pppGGGAGACAGGCACCACACACACACACACUUU-3′ [tri-G-AC-U] | – | – | – | pull-down of full length RIG-I [6]: did not immunoprecipitate RIG-I |
| CCOCc1nc2c(N)nc3ccccc3c2n1CC(C)(C)O [R848, reference compound] | failed to produce IFN-α | induce IFN-α in PDC | – | – |
| B1 | – | – | – | RIG-I-expression [8]: strongly upregulated |
